Results published in US12234466B2, “Aspergillus microorganism carrying disruptions of multiple genes and a method of producing thereof” (KIKKOMAN CORPORATION, priority 2018, dated 2025).

Columns and labels:
[1] = test system: AotrpC-disrupted strain; test: Growth on Sabouraud Dextrose Agar containing 5-FAA and 1 mM tryptophan; type: cell-based, Aspergillus oryzae
Procedure: (§1) The AotrpC-disrupted strain and Aspergillus oryzae RIB40 strain as a control were inoculated onto the plates of Sabouraud Dextrose Agar medium (BD) containing 0.12% (w/v) 5-FAA and 1 mM tryptophan, respectively. The plates were incubated at 30° C. for 4 days.
(§2) When the concentration of 5-FAA was changed to 0.1% (w/v), both the AotrpC-disrupted and RIB40 strains grew on the plates.

[2] = test system: AstrpC-disrupted strain; test: Growth on potato dextrose agar containing 5-FAA and 1 mM tryptophan; type: cell-based, Aspergillus sojae
Procedure: (§3) The AstrpC-disrupted strain and Aspergillus sojae NBRC4239 strain as a control were inoculated onto the plates of potato dextrose agar medium (Nissui Pharmaceutical Co., Ltd.) containing 0.04% (w/v) 5-FAA and 1 mM tryptophan, respectively. The plates were incubated at 30° C. for 4 days. […] In addition, 5-FAA (5-fluoroanthranilic acid; Tokyo Chemical Industry Co., Ltd.) was prepared to become a 10% solution using ethanol, and the solution was added to the medium to ensure that the final concentration became the above-mentioned concentration.
(§4) When the concentration of 5-FAA was changed to 0.02% (w/v), both AstrpC-disrupted and NBRC4239 strains grew on the plates.

[3] = test system: Aspergillus sojae NBRC4239 strain; test: as above; type: cell-based
Procedure: as §3, §4

[4] = test system: Aspergillus oryzae RIB40 strain; test: Growth on Sabouraud Dextrose Agar containing 5-FAA and 1 mM tryptophan; type: cell-based
Procedure: as §1, §2

[5] = 0.12% (w/v) 5-FAA, 30° C., 4 days
[6] = 0.04% (w/v) 5-FAA, 30° C., 4 days

Nc1ccc(F)cc1C(=O)O [5-FAA, 5-fluoroanthranilic acid]
did not grow at all: growth of NBRC4239 strain [3, 6] | growth of RIB40 strain [4, 5]
grew: growth of AotrpC-disrupted strain ([1]; 0.1% (w/v) 5-FAA) | growth of AotrpC-disrupted strain [1, 5] | growth of AstrpC-disrupted strain ([2]; 0.02% (w/v) 5-FAA) | growth of AstrpC-disrupted strain [2, 6] | growth of NBRC4239 strain ([3]; 0.02% (w/v) 5-FAA) | growth of RIB40 strain ([4]; 0.1% (w/v) 5-FAA)
